# In patent US10206937B2, “Boronic acid derivatives and therapeutic uses thereof” (Qpex Biopharma, Inc., priority 2014, dated 2019):
# Tested on: strains of Enterobacteriaceae producing various carbapenemases (class A, D and B; 169 strains)
# Test: Meropenem or tebipenem potentiation by Compounds 97 or 62 (MIC)
# Assay type: cell-based
# Method: The largest panel of clinical isolates expressing class A, D and B carbapenemases alone or in combination with other beta-lactamases (169 strains) was used to evaluate carbapenem potentiation activity of Compounds 97 and 62. MIC for meropenem and tebipenem of these strains were determined either alone or in the presence of Compounds 97 or 62, respectively, at a fixed concentration of 8 μg/ml in the growth media.
compound,measurement,setting,value
C[C@@H](O)[C@H]1C(=O)N2C(C(=O)O)=C(SC3CN(C4=NCCS4)C3)[C@H](C)[C@H]12 [T],Tebipenem MIC alone (T),"KP1182 Klebsiella pneumoniae SHV-OSBL(2b), NDM-1, OXA-232(c)",Z (MIC of greater than 10 μg/mL)
same,Tebipenem MIC alone (T),"KP1183 Klebsiella pneumoniae SHV-OSBL(2b), TEM-OSBL(2b), CTX-M-15, NDM-1",Z (MIC of greater than 10 μg/mL)
same,Tebipenem MIC alone (T),"KP1184 Klebsiella pneumoniae SHV-OSBL(2b), IMP-1",Y (MIC of 1 μg/mL to 10 μg/mL)
same,Tebipenem MIC alone (T),"KP1185 Klebsiella pneumoniae SHV-OSBL(2b), TEM-OSBL(2b), IMP-4",Z (MIC of greater than 10 μg/mL)
same,Tebipenem MIC alone (T),"KP1186 Klebsiella pneumoniae CTX-M-15, NDM-1",Z (MIC of greater than 10 μg/mL)
same,Tebipenem MIC alone (T),"KP1187 Klebsiella pneumoniae SHV-55(2be), TEM-OSBL(2b), CTX-M-15, NDM-1",Z (MIC of greater than 10 μg/mL)
same,Tebipenem MIC alone (T),"KP1188 Klebsiella pneumoniae SHV-OSBL(2b), CTX-M-15, NDM-1",Z (MIC of greater than 10 μg/mL)
same,Tebipenem MIC alone (T),"KP1189 Klebsiella pneumoniae TEM-OSBL(2b), CTX-M-15, CTX-M-27, NDM-1",Z (MIC of greater than 10 μg/mL)
same,Tebipenem MIC alone (T),KP1190 Klebsiella pneumoniae KPC-4 VIM-4 TEM SHV,Z (MIC of greater than 10 μg/mL)
same,Tebipenem MIC alone (T),KP1191 Klebsiella pneumoniae KPC-2,Z (MIC of greater than 10 μg/mL)
same,Tebipenem MIC alone (T),KP1192 Klebsiella pneumoniae KPC-2 TEM SHV,Z (MIC of greater than 10 μg/mL)
same,Tebipenem MIC alone (T),KP1193 Klebsiella pneumoniae KPC-3 TEM SHV,Z (MIC of greater than 10 μg/mL)
same,Tebipenem MIC alone (T),KP1194 Klebsiella pneumoniae KPC TEM SHV,Z (MIC of greater than 10 μg/mL)
same,Tebipenem MIC alone (T),KP1195 Klebsiella pneumoniae KPC TEM CTX-M-15,Z (MIC of greater than 10 μg/mL)
same,Tebipenem MIC alone (T),KP1196 Klebsiella pneumoniae KPC TEM SHV CTX-M-15 CMY,Z (MIC of greater than 10 μg/mL)
same,Tebipenem MIC alone (T),"KP1197 Klebsiella pneumoniae KPC-3, VIM-1 TEM SHV",Z (MIC of greater than 10 μg/mL)
same,Tebipenem MIC alone (T),"KP1198 Klebsiella pneumoniae KPC-3, VIM-1 TEM SHV",Z (MIC of greater than 10 μg/mL)
same,Tebipenem MIC alone (T),KP1199 Klebsiella pneumoniae KPC-3 TEM SHV,Z (MIC of greater than 10 μg/mL)
same,Tebipenem MIC alone (T),KP1200 Klebsiella pneumoniae KPC-3 TEM SHV,Z (MIC of greater than 10 μg/mL)
same,Tebipenem MIC alone (T),KP1210 Klebsiella pneumoniae KPC SHV TEM,Z (MIC of greater than 10 μg/mL)
same,Tebipenem MIC alone (T),KP1211 Klebsiella pneumoniae KPC SHV TEM CTX-M-15,Z (MIC of greater than 10 μg/mL)
same,Tebipenem MIC alone (T),KP1212 Klebsiella pneumoniae KPC SHV TEM CTX-M-15,Z (MIC of greater than 10 μg/mL)
same,Tebipenem MIC alone (T),KP1213 Klebsiella pneumoniae KPC SHV TEM CTX-M-15,Z (MIC of greater than 10 μg/mL)
same,Tebipenem MIC alone (T),KP1214 Klebsiella pneumoniae KPC SHV TEM + 1.9 kb,Z (MIC of greater than 10 μg/mL)
same,Tebipenem MIC alone (T),KP1215 Klebsiella pneumoniae KPC SHV,Z (MIC of greater than 10 μg/mL)
same,Tebipenem MIC alone (T),KP1216 Klebsiella pneumoniae KPC SHV TEM + 1.9 kb,Z (MIC of greater than 10 μg/mL)
same,Tebipenem MIC alone (T),KP1217 Klebsiella pneumoniae KPC SHV TEM + 1.9 kb,Z (MIC of greater than 10 μg/mL)
same,Tebipenem MIC alone (T),KP1218 Klebsiella pneumoniae KPC SHV TEM + 1.9 kb,Z (MIC of greater than 10 μg/mL)
same,Tebipenem MIC alone (T),KP1219 Klebsiella pneumoniae KPC SHV TEM + 1.9 kb,Z (MIC of greater than 10 μg/mL)
same,Tebipenem MIC alone (T),KP1220 Klebsiella pneumoniae KPC SHV TEM + 1.9 kb,Z (MIC of greater than 10 μg/mL)
same,Tebipenem MIC alone (T),KP1221 Klebsiella pneumoniae KPC SHV TEM + 1.9 kb,Z (MIC of greater than 10 μg/mL)
same,Tebipenem MIC alone (T),KP1222 Klebsiella pneumoniae KPC SHV TEM IMP,Z (MIC of greater than 10 μg/mL)
same,Tebipenem MIC alone (T),KP1223 Klebsiella pneumoniae KPC SHV TEM,Z (MIC of greater than 10 μg/mL)
same,Tebipenem MIC alone (T),KP1224 Klebsiella pneumoniae KPC SHV TEM,Z (MIC of greater than 10 μg/mL)
same,Tebipenem MIC alone (T),KP1225 Klebsiella pneumoniae KPC SHV TEM + 1.9 kb CMY,Z (MIC of greater than 10 μg/mL)
same,Tebipenem MIC alone (T),KP1226 Klebsiella pneumoniae KPC SHV TEM + 1.9 kb,Z (MIC of greater than 10 μg/mL)
same,Tebipenem MIC alone (T),KP1227 Klebsiella pneumoniae KPC SHV TEM CTX-M-15,Z (MIC of greater than 10 μg/mL)
same,Tebipenem MIC alone (T),KP1228 Klebsiella pneumoniae OXA-48 TEM SHV CTX-M-15,Y (MIC of 1 μg/mL to 10 μg/mL)
same,Tebipenem MIC alone (T),KP1229 Klebsiella pneumoniae OXA-48 TEM SHV CTX-M-15,Z (MIC of greater than 10 μg/mL)
same,Tebipenem MIC alone (T),KP1230 Klebsiella pneumoniae OXA-48 TEM SHV CTX-M-15,Y (MIC of 1 μg/mL to 10 μg/mL)
same,Tebipenem MIC alone (T),KP1231 Klebsiella pneumoniae OXA-48 TEM SHV CTX-M-15,Y (MIC of 1 μg/mL to 10 μg/mL)
same,Tebipenem MIC alone (T),KP1232 Klebsiella pneumoniae OXA-48 TEM SHV CTX-M-15,Z (MIC of greater than 10 μg/mL)
same,Tebipenem MIC alone (T),KP1234 Klebsiella pneumoniae OXA-48 TEM SHV CTX-M-15,Z (MIC of greater than 10 μg/mL)
same,Tebipenem MIC alone (T),KP1236 Klebsiella pneumoniae OXA-48 TEM SHV CTX-M-15,Z (MIC of greater than 10 μg/mL)
same,Tebipenem MIC alone (T),"PM1024 Proteus mirabilis TEM-1(2b), CMY-16, VIM-1",Z (MIC of greater than 10 μg/mL)
same,Tebipenem MIC alone (T),"PM1025 Proteus mirabilis SHV-5(2be), TEM-OSBL(2b), VEB-2, VIM-1",Y (MIC of 1 μg/mL to 10 μg/mL)
same,Tebipenem MIC alone (T),"PM1026 Proteus mirabilis DHA-1, IMP-26",Y (MIC of 1 μg/mL to 10 μg/mL)
same,Tebipenem MIC alone (T),PM1027 Proteus mirabilis VIM-5,Z (MIC of greater than 10 μg/mL)
same,Tebipenem MIC alone (T),SM1023 Serratia marcescens VIM-4,Z (MIC of greater than 10 μg/mL)
same,Tebipenem MIC alone (T),"SM1024 Serratia marcescens TEM-1(2b), IMP-47",Y (MIC of 1 μg/mL to 10 μg/mL)
